Test results: US9856232B1, “Dihydropyrimidinone derivatives” (KING SAUD UNIVERSITY, priority 2017, dated 2018)
Marks after values point to notes of the source that are not given here.

What was measured:
[1] = test system: Gastric lesions induced by 80% ethanol; assay: Gastric lesions induced by ethanol (ulcer index by severity scores); assay type: in vivo, Albino Wistar rats; conditions: Rattus norvegicus, po, vs 80% EtOH group, read-out: Gastric lesions induced by 80% ethanol, % change; for inhibition in vivo at 12.5 mg/kg: compound 12.5 mg/kg; for inhibition in vivo at 25 mg/kg: compound 25 mg/kg; for inhibition in vivo at 50 mg/kg: compound 50 mg/kg
Protocol: (§1) Albino Wistar rats of either sex, approximately the same age, weighing 150 to 200 g and fed on a diet of standard chow were used in this study. They were randomly divided into experimental groups of six rats each. Compounds (N-1 to N-18) 12.5, 25, and 50 mg/kg were given orally in the anti-ulcer studies and intraperitoneally for gastric secretion evaluation. The rats were sacrificed, and the stomachs removed and opened along the greater curvature, After washing with saline, the gastric lesions were quantified by a person unaware of the treatments. The animal study protocol was approved by the Research and Ethics Committee of the Experimental Animal Care Society, College of Pharmacy, King Saud University, Riyadh, Saudi Arabia.
Gastric lesions induced by ethanol: Albino rats of either sex weighing between (150-200 g) are divided into groups. The animals were fasted for 24 hours with free access to water. Animals were given test drugs or standard drug. One hour later 1 mL/200 gm of 80% ethanol is administered orally to each animal. The animals were anaesthetized 1 hour latter with anesthetic ether and stomach was incised along the greater curvature and ulceration was scored. The number of ulcers and the length of each ulcer were measured. Ulcer index was calculated using severity scores. The mucosal damage was examined by means of a magnifying glass. For each stomach the mucosal damage was assessed according to the following scoring system: 0.5 redness; 1.0 spot ulcers; 1.5 hemorrhagic streaks; 2.0 ulcers<3, but≦5; 3.0 ulcers>5. Table 1 provides the effect of compounds on gastric lesions induced by 80% ethanol (mean±SE).

[2] = test system: gastric secretion in pylorus-ligated Shay rats; assay: Pylorus-ligated rats: gastric secretion, acidity and lesion index; assay type: in vivo, Albino Wistar rats; parameters: Ulcer Index, pylorus-ligated Shay rats: scale not given here; conditions: i.p., 6 h after pylorus ligation, mean ± SE
Protocol: as §1
Pylorus-ligated rats: Rats were fasted for 36 hours with access to water ad libitum before pylorus ligation under ether anesthesia was carried out. Care was taken not to cause bleeding or to occlude blood vessels. Compounds (N-3, N-8, N-11, and N-15) were administered intraperitoneally immediately after pylorus ligation. The rats were sacrificed at 6 hours after pylorus ligation. The stomachs were removed, the contents were collected, volumes measured, centrifuged and analyzed for tritratable acidity against […], NaOH at pH 7.0. Table 5 provides the effect of compounds on gastric secretion, acidity, and gastric lesion index in pylorus-ligated Shay rats (mean±SE).

[3] = test system: gastric wall mucus in stomach tissue, change induced by 80% ethanol; assay: Determination of gastric wall mucus (GWM); assay type: in vivo, Albino Wistar rats; conditions: i.p, 80% ethanol-treated rats, mean ± SE
Protocol: as §1
Determination of gastric wall mucus (GWM): Gastric wall mucus was determined according to the modified procedure. The glandular segment of the stomach was separated from the rumen of the stomach, weighed, and transferred immediately to 10 mL of 0.1% w/v Alcian blue solution (in […] sucrose solution buffered with […] sodium acetate at pH 5. Tissue was stained for 2 hours in Alcian blue, and excess dye was removed by two successive rinses with 10 mL of […] sucrose, firstly after 15 minutes and then after 45 minutes. Dye complexed with the gastric wall mucus was extracted with 10 ml of […] magnesium chloride which was intermittently shaken for 1 minute at 30 minute intervals for 2 hours. Four milliliters of blue extract were then vigorously shaken with an equal volume of diethyl ether. The resulting emulsion was centrifuged at 4000 r/min for 10 minutes and the absorbance of the aqueous layer was recorded at 580 nm. The quantity of Alcian blue extracted per gram of wet glandular tissue was then calculated. Table 6 provides the effect of compounds on the change in gastric wall mucus in stomach tissue induced by 80% ethanol (mean±SE).

[4] = test system: total protein in stomach tissue, induced by 80% ethanol; assay: Total protein in stomach tissue; assay type: in vivo, Albino Wistar rats; conditions: mean ± SE
[5] = dose 12.5, 80% ethanol-treated rats
[6] = dose 25, 80% ethanol-treated rats
[7] = dose 50, 80% ethanol-treated rats

Row | Compound | inhibition in vivo at 12.5 mg/kg [1] | inhibition in vivo at 25 mg/kg [1] | inhibition in vivo at 50 mg/kg [1] | Titratable Acidity ([2]; 12.5 mg/kg) | Ulcer Index, pylorus-ligated Shay rats ([2]; 12.5 mg/kg) | Volume of Gastric Content ([2]; 12.5 mg/kg) | Titratable Acidity ([2]; 25 mg/kg) | Ulcer Index, pylorus-ligated Shay rats ([2]; 25 mg/kg) | Volume of Gastric Content ([2]; 25 mg/kg) | Titratable Acidity ([2]; 50 mg/kg) | Ulcer Index, pylorus-ligated Shay rats ([2]; 50 mg/kg) | Volume of Gastric Content ([2]; 50 mg/kg) | Gastric Wall Mucus ([3]; 12.5 mg/kg) | Gastric Wall Mucus ([3]; 25 mg/kg) | Gastric Wall Mucus ([3]; 50 mg/kg) | Total Protein [4, 5] | Total Protein [4, 6] | Total Protein [4, 7] | melting point
1 | COc1ccc(C2NC(=O)NC=C2C(=O)c2ccc(N3CCCCC3)cc2)c(OC)c1OC (stereo not shown) [Compound N-15, 4-(2,3,4-Trimethoxyphenyl)-5-[4-(piperidin-1-yl)benzoyl]-3,4-dihydropyrimidin-2(1H)-one] | 35.4% | 54.8% | 67.7% | 116.11 ± 2.64 mEg/L | 1.83 ± 0.304 | 6.68 ± 0.18 mL | 86.11 ± 3.98 mEg/L | 1.50 ± 0.22 | 5.50 ± 0.24 mL | 73.33 ± 2.43 mEg/L | 1.00 ± 0.36 | 4.76 ± 0.23 mL | 231.78 ± 4.77*^b μg/g | 248.09 ± 7.69**^b μg/g | 275.32 ± 5.37***^b μg/g | 71.45 ± 1.43*^b g/L | 81.43 ± 3.65***^b g/L | 96.60 ± 1.18***^b g/L | 
2 | CN(C)c1ccc(C2NC(=O)NC=C2C(=O)c2ccc(N3CCCCC3)cc2)cc1 (stereo not shown) [Compound N-11, 4-(4-Dimethylaminophenyl)-5-[4-(piperidin-1-yl)benzoyl]-3,4-dihydropyrimidin-2(1H)-one] | 22.5% | 48.3% | 61.2% | 160.55 ± 3.48 mEg/L | 2.83 ± 0.30 | 10.20 ± 0.29 mL | 141.11 ± 6.30 mEg/L | 2.50 ± 0.42 | 7.35 ± 0.19 mL | 116.66 ± 4.63 mEg/L | 2.33 ± 0.71 | 6.63 ± 0.21 mL | 192.87 ± 12.84^b μg/g | 224.88 ± 4.64*^b μg/g | 217.36 ± 3.31**^b μg/g | 53.89 ± 1.48*^b g/L | 64.27 ± 2.08***^b g/L | 72.25 ± 1.43***^b g/L | 185 to 187 °C
3 | COc1ccccc1C1NC(=O)NC=C1C(=O)c1ccc(N2CCCCC2)cc1 (stereo not shown) [Compound N-8, 4-(2-Methoxyphenyl)-5-[4-(piperidin-1-yl)benzoyl]-3,4-dihydropyrimidin-2(1H)-one] | 33.3% | 50% | 53.3% | 161.11 ± 4.36 mEg/L | 3.16 ± 0.30 | 10.50 ± 0.34 mL | 133.33 ± 3.22 mEg/L | 2.50 ± 0.22 | 9.36 ± 1.22 mL | 115.00 ± 5.75 mEg/L | 2.00 ± 0.13 | 6.46 ± 0.16 mL | 206.39 ± 7.18^b μg/g | 212.00 ± 6.40^b μg/g | 244.65 ± 5.36**^b μg/g | 45.90 ± 1.14^b g/L | 55.88 ± 1.71*^b g/L | 66.26 ± 1.47 g/L | 
4 | O=C1NC=C(C(=O)c2ccc(N3CCCCC3)cc2)C(c2ccc([N+](=O)[O-])cc2)N1 (stereo not shown) [Compound N-3, 4-(4-Nitrophenyl)-5-[4-(piperidin-1-yl)benzoyl]-3,4-dihyropyrimidin-2(1H)-one] | 33.3% | 53.3% | 60% | 153.88 ± 5.40 mEg/L | 2.33 ± 0.33 | 9.03 ± 0.24 mL | 97.77 ± 2.93 mEg/L | 1.83 ± 0.304 | 6.31 ± 0.25 mL | 84.84 ± 2.38 mEg/L | 1.16 ± 0.30 | 4.63 ± 0.22 mL | 242.08 ± 4.03*^b μg/g | 241.66 ± 6.91**^b μg/g | 256.18 ± 8.39***^b μg/g | 58.68 ± 3.19*^b g/L | 74.65 ± 3.79*^b g/L | 95.80 ± 1.51***^b g/L | 
